“And” between values parts separate entries of the source, which are not always exact repeats. Equal entries are not always repeated.
How the values were obtained:
[1] = Urine volume / diuretic action in rat (Test Example 2); type: in vivo; conditions: for Urine Volume (g/100 g body weight): 180 minutes
Protocol: (§1) SD IGS rats (6-weeks-old, from Charles River) were placed in cages (3 animals/cage) and preliminarily allowed food and water ad libitum and raised for 1 week. On the day of the experiment, their weight was measured, a water-absorbing sheet was placed below each cage, and the animals were fasted but allowed water ad libitum throughout the experiment. Three hours after fasting was initiated, the fecal pellets were recovered from each cage and observed for abnormality before the experiment, and then the compound suspended or dissolved in 0.5% (W/V) methyl cellulose (MC) was orally administered into each rat in a dose of 5 ml/kg. On one hand, 0.5% (W/V) MC only was orally given to the control group. After administering the compound, the rats were returned to the cage provided with anew water-absorbing sheet of known weight, and 180 minutes after the administration, the fecal pellets on the water-absorbing sheet were recovered from each cage, and the external appearance was observed, and the number of fecal pellets was counted. The number of fecal pellets is expressed per each cage (Table 4). After the fecal pellets were recovered, the water-absorbing sheet was weighed, and the weight determined by subtracting the initial weight of the water-adsorbing sheet from the weight after the experiment was regarded as the volume of urine and expressed as the volume of urine per 100 g of the body weight (Table 4).

colon tract = test: Inhibitory effect of adenosine receptor antagonist on suppressing action of NECA on Carbachol-stimulated contraction of the colon tract; set-up: species or system rat; conditions: for Contraction (%) Mean: Carbachol 0.3 μM + NECA 1 μM = 0%, Carbachol 0.3 μM = 100%; for Inhibition of the suppressing effect of NECA on the contraction (in words): rat colon tract, Carbachol + NECA
Protocol: The abdomen of a rat under anesthesia with ether was opened, and from the rectum to the cecum was excised therefrom and soaked in ice-cooled Tyrode solution (containing 136 mM NaCl, 2.7 mM KCl, 0.4 mM NaH2PO4.2H2O, 5.6 mM glucose, 11.9 mM NaHCO3, 1 mM MgCl2.6H2O, 1.8 mM CaCl2). Surrounding connective tissues were removed, and the intestinal tract was cut at positions apart by 1.5 cm from the rectum and by 3 cm from the cecum, to give a colon tract of about 3 cm in full length. Both the terminals of the colon tract were pinched respectively with Serrefines (trade name) to which a string had been connected, and the colon tract with the side of the cecum facing upward was immediately suspended in a Magnus tube filled with Tyrode solution previously warmed at 37° C., and then equilibrated by bubbling with a gas (O2/CO2=95/5). The string connected to the Serrefines (trade name) at the side of the cecum was suspended, and the change in the length of the colon tract was detected with an amplifier for strain pressure (Nihon Kohden Corporation).
In the experiment, 3 samples were used.

SD IGS rats [2] = test: Contribution of A2b inhibition to defecation-promoting action (Test Example 3); type: in vivo, rat; conditions: 180 minutes
Protocol: as §1
After administering the compounds, the rats were returned to the cage under which a new water-absorbing sheet had been installed, and after 180 minutes, the fecal pellets on the water-absorbing sheet were recovered from each cage, and the outward appearance was observed and the number of fecal pellets was counted. The number of fecal pellets is expressed per cage (Table 5).

SD IGS rats [3] = test: Defecation-promoting action in rat (Test Example 2); type: in vivo; conditions: for The number of fecalpellets/3 rats: 180 minutes after administration; for Defecation-promoting action (in words): Table 4
Protocol: as §1

[4] = molecular target: T1, human adenosine A2b receptor (Homo sapiens, UniProt P29275); test: Inhibition of NECA-stimulated production of cAMP in adenosine A2b receptor-expressing cells; type: cell-based
T1 construct: expressed in transfected cells; host or cells: CHOK1 cells
T1 sequence (P29275 1-332): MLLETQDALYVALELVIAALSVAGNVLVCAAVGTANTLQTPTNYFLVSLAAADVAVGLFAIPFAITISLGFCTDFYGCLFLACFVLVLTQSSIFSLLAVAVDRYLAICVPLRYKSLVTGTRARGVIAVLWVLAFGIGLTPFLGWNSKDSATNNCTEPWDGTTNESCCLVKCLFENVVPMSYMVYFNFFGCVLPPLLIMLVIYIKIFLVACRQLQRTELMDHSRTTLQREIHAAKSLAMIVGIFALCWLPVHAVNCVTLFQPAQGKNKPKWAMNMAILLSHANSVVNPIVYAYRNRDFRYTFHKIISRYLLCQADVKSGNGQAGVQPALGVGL
Protocol: CHOK1 cells where a human adenosine A2b receptor had been expressed in excess were plated onto a 24-well plate at a density of 1.5×10^5 cells/well, cultured overnight, and used in the experiment. […] That is, the adhering cells were washed twice with 2 ml/well Krebs-Ringer buffer solution (containing 0.1% BSA; pH 7.4) and pre-incubated for 30 minutes in a volume of 0.5 ml/well. […] After pre-incubation for 15 minutes, the reaction was terminated with 0.1 N HCl in a volume of 300 μl/well. Measurement of intracellular cAMP was carried out using a cAMP enzyme immunoassay kit produced by Amersham.

SD IGS rats [5] = test: Evaluation of defecation-promoting action (Tables 8 and 10); type: in vivo, rat; conditions: 3 mg/kg oral; Table 8, n = 4 cages/group
Description: For example, the defecation-promoting actions of 8-phenyltheophylline (“8-PT” in the table below) and 5-[6-amino-8-(3-fluorophenyl)-9H-9-purinyl]-1-methyl-1,2-di hydro-2-pyridinone (Compound II in the table below) disclosed in Example Number 5 described in WO 2001/2400 were as shown below. 8-PT can be easily produced according to the description of Drug Development Research 47: 45-53 (1999), or is easily available as a commercial product (in this test, it was purchased from Sigma).
That is, SD IGS rats (6- to 7-weeks-old, from Charles River) were placed in cages (3 animals/cage) and preliminarily allowed food and water ad libitum and raised for 1 week. On the day of the experiment, their weight was measured, a water-absorbing sheet was placed below each cage, and the animals were fasted but allowed water ad libitum throughout the experiment. Thee hours after fasting was initiated, the fecal pellets were recovered from each cage and observed for abnormality before the experiment, and then the compound suspended in 0.5% (w/v) methyl cellulose (MC) was orally administered in a dose of 5 ml/kg. On one hand, 0.5% (w/v) MC only was orally given to the control group. After administration of the compound, the rats were returned to the cage provided with a new water-absorbing sheet, and 180 minutes after the administration, the fecal pellets on the water-absorbing sheet were recovered from each cage, and the external appearance was observed, and the number of fecal pellets was counted. The number of fecal pellets is expressed per each cage.

[6] = molecular target: T2, human adenosine A1 receptor (Homo sapiens, UniProt P30542); test: Ability to bind to adenosine A1 receptor (3H-CCPA); type: binding; conditions: CHOK1 membranes, Cheng-Prusoff
T2 sequence (P30542 1-326): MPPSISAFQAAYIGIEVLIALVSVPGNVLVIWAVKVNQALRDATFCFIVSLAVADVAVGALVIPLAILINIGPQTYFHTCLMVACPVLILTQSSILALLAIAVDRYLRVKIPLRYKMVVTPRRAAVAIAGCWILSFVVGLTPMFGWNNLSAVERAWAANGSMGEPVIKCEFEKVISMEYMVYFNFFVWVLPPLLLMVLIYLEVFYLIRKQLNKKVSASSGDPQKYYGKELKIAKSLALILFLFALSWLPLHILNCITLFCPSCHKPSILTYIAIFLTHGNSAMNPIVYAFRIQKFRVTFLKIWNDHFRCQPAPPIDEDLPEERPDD
Protocol: To 0.45 ml of this membrane sample suspension were added 0.025 ml of 60 nM tritium-labeled chlorocyclopentyl adenosine (3H-CCPA, from NEN Ltd.) and 0.025 ml test compound. This mixture was left at 30° C. for 120 minutes, filtered rapidly under suction through a glass fiber filter (GF/B, from Whatman), and immediately washed twice with 5 ml of 50 mM water-cooled Tris-HCl buffer. Thereafter, the glass fiber filter was transferred to a vial, a scintillator was added thereto, and the radioactivity on the filter was measured by a liquid scintillation counter.
Inhibition (%)=[1−{binding in the presence of the test compound-non-specific binding)/(total binding-non-specific binding)}]×100
In the above formula, the total binding means ^3H—CCPA-bound radioactivity in the absence of the test compound; the non-specific binding means ^3H-CCPA-bound radioactivity in the presence of 100 μM RPIA ([R]-[1-methyl-2-phenylethyl]adenosine); and the binding in the presence of the test compound means ^3H-CCPA-bound radioactivity in the […] of the test compound at predetermined concentrations. The inhibition constant (Ki value) in the table was determined from the formula of Cheng-Prusoff.

| SMILES | Urine Volume (g/100 g body weight) ([1]; 3 mg/kg oral) | Urine Volume (g/100 g body weight) ([1]; 10 mg/kg oral) | Diuretic action (comparison in words) ([1]; rat, oral) | Contraction (%) Mean (colon tract; antagonist 0.1 μM) [%] | Contraction (%) Mean (colon tract; antagonist 0.4 μM) [%] | Contraction (%) Mean (colon tract; antagonist 1.4 μM) [%] | Contraction (%) Mean (colon tract; antagonist 4.4 μM) [%] | Inhibition of the suppressing effect of NECA on the contraction (in words) (colon tract) | The number of fecalpellets/3 rats (SD IGS rats [2]; 3 mg/kg, without KW 6002) [fecalpellets/3 rats] | The number of fecalpellets/3 rats (SD IGS rats [3]; 3 mg/kg oral) [fecalpellets/3 rats] | The number of fecalpellets/3 rats (SD IGS rats [3]; 10 mg/kg oral) [fecalpellets/3 rats] | Diarrhea (SD IGS rats [3]; rat, oral) | Defecation-promoting action (in words) (SD IGS rats [3]; rat, oral) | IC50 [4] [nM] | The number of fecalpellets/3 rats (SD IGS rats [5]) | Ki [6] [nM] | Urine Volume (g/100 g body weight) ([1]; 1 mg/kg oral) | The number of fecalpellets/3 rats (SD IGS rats [2]; KW 3902 0 mg/kg + KW 6002 (1 mg/kg)) [fecalpellets/3 rats] | The number of fecalpellets/3 rats (SD IGS rats [3]; 1 mg/kg oral) [fecalpellets/3 rats] |
| --- | --- | --- | --- | --- | --- | --- | --- | --- | --- | --- | --- | --- | --- | --- | --- | --- | --- | --- | --- |
| Nc1ncc(-c2ccncc2)c(-c2ccco2)n1 [Compound I, 4-(2-Furyl)-5-(4-pyridyl)-2-pyrimidinyl amine] | 0.79 ± 0.09 | 1.23 ± 0.13 | weaker diuretic action than the A1-selective antagonist KW3902 | 71.5 | 111.0 | 122.0 | 85.9 | inhibited the suppressing effect of NECA on the contraction | 34.00 ± 1.00 | 16.33 ± 1.82 | 30.00 ± 2.79 | did not cause diarrhea | evidently higher defecation-promoting action than the A1-selective antagonist KW3902 or the A2a-selective antagonist KW6002 | 8.4 | 19.75 ± 2.50 fecalpellets/3 rats and 20.75 ± 3.15 fecalpellets/3 rats | 660 |  |  |  |
| CCn1c(=O)c2c(nc(/C=C/c3ccc(OC)c(OC)c3)n2C)n(CC)c1=O [KW 6002] | 0.76 ± 0.05 |  |  | 5.2 | 1.1 | −2.9 | −3.9 | did not show any inhibitory effect |  | 7.00 ± 0.86 |  |  | low defecation-promoting action |  |  | 22600 | 0.72 ± 0.07 | 7.00 ± 1.58 | 6.67 ± 1.63 |
